Where “and” joins values, the source holds several entries; their conditions need not be identical. Equal entries are not always repeated. Entries after “also recorded” stand apart in the source; their conditions may differ. Where two headings read alike, the source gives them in different places. Values belong to the compound of their own block, whether it stands above or below them.
Experiments:
hPHGDH [1] = target: T1, hPHGDH (Homo sapiens, UniProt O43175); test: hPHGDH forward reaction kinetics (PSAT-coupled or hydrazine assay, NADH fluorescence); type: biochemical; set-up: His-tagged full-length hPHGDH was expressed in BL21(DE3) E. coli cells; made in house; host or cells: E. coli BL21(DE3)
T1 sequence (O43175 1-533): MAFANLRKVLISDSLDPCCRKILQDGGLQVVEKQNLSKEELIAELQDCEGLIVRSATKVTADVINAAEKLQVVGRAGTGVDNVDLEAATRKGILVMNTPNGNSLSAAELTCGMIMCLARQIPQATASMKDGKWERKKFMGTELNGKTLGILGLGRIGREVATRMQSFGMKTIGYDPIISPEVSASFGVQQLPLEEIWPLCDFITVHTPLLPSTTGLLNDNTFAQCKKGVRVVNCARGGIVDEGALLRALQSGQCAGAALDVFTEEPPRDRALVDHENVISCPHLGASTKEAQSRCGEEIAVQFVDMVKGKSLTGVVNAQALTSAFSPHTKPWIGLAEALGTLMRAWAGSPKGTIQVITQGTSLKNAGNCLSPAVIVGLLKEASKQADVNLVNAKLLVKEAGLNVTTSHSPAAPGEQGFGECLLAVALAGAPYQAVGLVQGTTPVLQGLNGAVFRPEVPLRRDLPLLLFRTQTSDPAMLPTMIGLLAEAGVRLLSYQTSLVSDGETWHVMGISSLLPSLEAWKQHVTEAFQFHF
Procedure: PSAT was added to drive the reaction and to avoid product inhibition of hPHGDH.
(§1) The latter assay was used to determine the apparent kinetic parameters on alternative substrates.

hPHGDH [2] = target: T1, hPHGDH; set-up: His-tagged full-length hPHGDH was expressed in BL21(DE3) E. coli cells; made in house; host or cells: E. coli BL21(DE3); settings: cited from earlier work
hPHGDH [3] = target: T1, hPHGDH; test: Effect of salts, phosphate and serine synthesis metabolites on hPHGDH activity (hydrazine assay); type: biochemical; set-up: His-tagged full-length hPHGDH was expressed in BL21(DE3) E. coli cells; made in house; host or cells: E. coli BL21(DE3); settings: for decrease of hPHGDH activity: […] 3PG
Text: The effects of KCl, NaCl, MgCl2 and CaCl2 and of pH and temperature on enzyme activity and stability were investigated using the hydrazine assay. […] The dependence of activity on pH was fitted using an equation for three pKa values, according to [44], providing apparent values unrelated to microscopic ones.

hPHGDH [4] = target: T1, hPHGDH; test: Ligand binding by quenching of protein fluorescence at 330 nm
Procedure: Protein fluorescence spectra were measured at 0.06–0.1 mg/mL protein concentration in 10 mM potassium phosphate, pH 7.0, 15 °C; spectra were recorded using a Jasco FP-750 instrument and were corrected for the buffer contribution. Protein fluorescence spectra were recorded between 300 and 450 nm, with excitation at 280 and 298 nm.
All recorded spectra were subtracted for the contribution of the ligand (added to the buffer only) and were corrected for dilution at every addition. […] In all cases, Kd values were determined by fitting the data to a hyperbolic function.

hPHGDH [5] = target: T1, hPHGDH; test: Temperature-ramp unfolding (melting temperature) with cofactors; type: binding; set-up: His-tagged full-length hPHGDH was expressed in BL21(DE3) E. coli cells; made in house; host or cells: E. coli BL21(DE3)
Procedure: Temperature-ramp experiments were performed in 10 mM potassium phosphate, pH 7.0. For this, a software-driven, Peltier-equipped fluorimeter was used to measure the protein fluorescence change at 330 nm or a CD spectropolarimeter to follow the CD signal at 280 nm in order to reproduce a temperature gradient (0.5 °C/min) [31].

hPHGDH [6] = target: T1, hPHGDH; test: Inhibition of hPHGDH activity by inhibitors (hydrazine assay); type: biochemical; set-up: His-tagged full-length hPHGDH was expressed in BL21(DE3) E. coli cells; made in house; host or cells: E. coli BL21(DE3); settings: kinetics on 3PG at increasing inhibitor concentration
hPHGDH [7] = target: T1, hPHGDH; test: Limited proteolysis with trypsin, SDS-PAGE; set-up: His-tagged full-length hPHGDH was expressed in BL21(DE3) E. coli cells; made in house; host or cells: E. coli BL21(DE3); settings: 5% (w/w) trypsin; 250 mM potassium phosphate, 500 mM sodium tartrate or 0.1 mM NCT-503
Procedure: hPHGDH at 0.4 mg/mL was incubated at 25 °C in 50 mM Hepes pH 7.5, 100 mM NaCl, 10% (v/v) glycerol, 1 mM EDTA and 5 mM 2-mercaptoethanol in the presence of 5% (w/w) trypsin (Roche, Basel, Switzerland). […] At different times (0, 30, 60, 120 and 240 min), 8 µg of protein was diluted in SDS-sample buffer, heated at 95 °C for 5 min and analyzed by SDS-PAGE.

hPHGDH [8] = target: T1, hPHGDH; test: hPHGDH reverse reaction kinetics (decrease in NADH fluorescence at 450 nm); settings: reverse reaction, 5 mM NADH
Text: as §1

E. coli PHGDH = settings: reverse reaction; cited from earlier work
[9] = substrate varied, […] NAD+, hydrazine assay, Figure S3B,D-F

maximal rate of Michaelis–Menten fit (numerator of y = a x/(b + x)) (hPHGDH [1]; 3PG varied, 120 µM NAD+, PSAT-coupled assay, Figure S3A): 1.282
maximal rate of Michaelis–Menten fit (hPHGDH [1]; 3PG varied, 120 µM NAD+, hydrazine assay, Figure S3A): 1.5348
kcat (hPHGDH [1]; forward reaction, substrate varied, 120 µM NAD^+, PSAT-coupled (1) and hydrazine (2) assays, 37 °C, 25 mM Hepes pH 7.0, per monomer): 1.5 s⁻¹
Km (hPHGDH [1]; forward reaction, substrate varied, 120 µM NAD^+, PSAT-coupled (1) and hydrazine (2) assays, 37 °C, pH 7.0): 260 µM
maximal rate of Michaelis–Menten fit (hPHGDH [1]; [9]): 2.972
SMILES: O=C(O)C(O)COP(=O)(O)O [3PG, D-3-phosphoglycerate]
Hill coefficient n (hPHGDH [2]; negative cooperativity in a previous work): 0.63–0.67

maximal rate of Michaelis–Menten fit (hPHGDH [1]; [9]): 2.527
SMILES: CC(O)CC(=O)O [D-3-Hydroxybutyrate]

maximal rate of Michaelis–Menten fit (hPHGDH [1]; [9]): 5.407
SMILES: C[C@@H](O)C(=O)O [D-Lactate]

maximal rate of Michaelis–Menten fit (hPHGDH [1]; [9]): 0.4351
SMILES: O=C(O)C[C@@H](O)C(=O)O [D-Malate]

maximal rate of Michaelis–Menten fit (hPHGDH [1]; [9]): 0.4125
SMILES: O=C(O)[C@@H](O)[C@H](O)C(=O)O [D-Tartrate]

decrease of hPHGDH activity (hPHGDH [3]; at 250 mM D-serine): ~ 25%
SMILES: N[C@H](CO)C(=O)O [D-serine]

SMILES: [Cl-].[K+] [KCl]
decrease of hPHGDH activity (hPHGDH [3]; at 10 mM KCl, […] NAD+): 40%
initial activity lost (hPHGDH [3]; at ≥10 mM KCl): 30%

Kd (hPHGDH [4]; Kd (NAD^+; main phase of NADH binding), discussion value): ~130 µM
Kd (hPHGDH [4]; Kd, quenching of protein fluorescence at 15 °C, 1 μM enzyme, monophasic): 130 µM
maximal rate of Michaelis–Menten fit (hPHGDH [1]; NAD+ varied, 2.5 mM 3PG, PSAT-coupled assay, Figure S3C): 2.039
maximal rate of Michaelis–Menten fit (hPHGDH [1]; NAD+ varied, 2.5 mM 3PG, hydrazine assay, Figure S3C): 2.4118
Tm, circular dichroism signal at 280 nm (hPHGDH [5]; 120 µM NAD^+ or 100 µM NADH, protein alone 47.5): 48.2 °C
Tm, CD (220 nm) (hPHGDH [5]; +120 μM NAD^+ or +100 μM NADH, hPHGDH alone 47.2 ± 0.5): 48.2 ± 1.7 °C
Tm, Fluorescence (330 nm) (hPHGDH [5]; +120 μM NAD^+ or +100 μM NADH, hPHGDH alone 48.4 ± 2.1): 52.4 °C and 52.4 ± 0.4 °C
SMILES: NC(=O)c1ccc[n+]([C@@H]2O[C@H](COP(=O)(O)OP(=O)(O)OC[C@H]3O[C@@H](n4cnc5c(N)ncnc54)[C@H](O)[C@@H]3O)[C@@H](O)[C@H]2O)c1 [NAD^+]

SMILES: Cc1cc(C)nc(NC(=S)N2CCN(Cc3ccc(C(F)(F)F)cc3)CC2)c1 [NCT-503]
mechanism of inhibition (hPHGDH [6]): noncompetitive inhibitor; also recorded: noncompetitive inhibition mechanism
proteolysis of the full-length enzyme (hPHGDH [7]): to a lesser extent

SMILES: [Cl-].[Na+] [NaCl]
initial activity lost (hPHGDH [3]; at >20 mM NaCl): 30%

maximal rate of fit with substrate inhibition (hPHGDH [8]; Figure S4A,C,D): 1.7591
SMILES: O=C(O)CC(=O)C(=O)O [Oxaloacetate]

activity lost (hPHGDH [3]; at 1 mM potassium phosphate): 30%
effect on enzymatic activity (hPHGDH [3]; at 400 mM phosphate): fully abrogated
proteolysis of the full-length enzyme (hPHGDH [7]): hampered
SMILES: O=P(O)(O)O [potassium phosphate]

SMILES: O=C([O-])C(O)C(O)C(=O)[O-].[Na+].[Na+] (centres unmarked) [sodium tartrate]
proteolysis of the full-length enzyme (hPHGDH [7]): hampered

SMILES: O=C(O)CCC(=O)C(=O)O [α-Ketoglutarate]
Ki (hPHGDH [8]; Ki (substrate inhibition), 37 °C, pH 7.0): 13300 µM
Ki (hPHGDH [8]; Ki of fit with substrate inhibition, Figure S4A,C,D): 13300 µM
Km (E. coli PHGDH): 500 µM
Km (hPHGDH [2]; commercial enzyme preparation): ~10000 µM
